Laboratory results: patent publication US20230263822A1, “MODULATION OF FACTOR 11 EXPRESSION” (Ionis Pharmaceuticals, Inc., priority 2008, published 2023)
Where two headings read alike, the source gives them in different places. e = 2'-O-(2-methoxyethyl) (MOE); d = 2'-deoxy (DNA)

Assays:
[1] = rat, in vivo, sc, 50 mg/kg
[2] = mouse, in vivo, sc, 50 mg/kg
[3] = mouse, in vivo, sc, 50 mg/kg; remark: listed apart in the source
[4] = mouse, in vivo, sc, 50 mg/kg; remark: listed apart in the source
[5] = rat, in vivo, sc, 50 mg/kg; remark: listed apart in the source
[6] = rat, in vivo, sc, 50 mg/kg; remark: listed apart in the source

Substance	HCT [1]	Lymphocyte [1]	Neutrophil [1]	Platelets [1]	RBC [1]	WBC [1]	hemoglobin [1]	HCT [2]	Lymphocyte [2]	Neutrophil [2]	Platelets [2]	RBC [2]	WBC [2]	hemoglobin [2]	monocytes [2]	ALT [3]	AST [3]	Bilirubin [3]	Cholesterol [3]	BUN [4]	other results
ISIS 416863: MOE gapmer, nucleobases 1275 to 1318 of SEQ ID NO: 1 (Table 8) (antisense CAGCGGACGGCATTGGTGCA; MOE gapmer, wing and gap sizes not given here)	45%	14669	1720	674	7.6 10^6/μL	17 10^3/μL	14.1 g/dL	48%	5617 cells/μL	1330 cells/μL	1131 10^3/μL	9 10^6/μL	7 10^3/μL	14 g/dL	226 cells/μL	41 IU/L	101 IU/L	0.24 mg/dL	118 mg/dL	22 mg/dL	BUN [5]: 29 mg/dL; Creatinine [5]: 73 mg/dL; Total urine protein [5]: 269 mg/dL; Urine protein/creatinine ratio [5]: 3.8; ALT [6]: 47 IU/L; AST [6]: 78 IU/L; Albumin [6]: 4; Bilirubin [6]: 0.13 mg/dL
ISIS 413481: 5-10-5 MOE gapmer GGTGCACAGTTTCTGGCAGG (sugars from the 5' end e5 d10 e5, backbone and methylation of C not given here)	43%	12707	1046	552	7.5 10^6/μL	14 10^3/μL	14.2 g/dL	45%	4329 cells/μL	1904 cells/μL	841 10^3/μL	9 10^6/μL	7 10^3/μL	13 g/dL	204 cells/μL	85 IU/L	143 IU/L	0.18 mg/dL	153 mg/dL	23 mg/dL	BUN [5]: 26 mg/dL; Creatinine [5]: 45 mg/dL; Total urine protein [5]: 148 mg/dL; Urine protein/creatinine ratio [5]: 3.6; ALT [6]: 54 IU/L; AST [6]: 80 IU/L; Albumin [6]: 4; Bilirubin [6]: 0.22 mg/dL
